According to patent publication US11466013B2 (Betta Pharmaceuticals Co., LTD, priority 2018, dated 2022):

Legend:
ERK1 = ERK1 (Homo sapiens, UniProt P27361); experiment: Kinase assay (Caliper, FAM-labeled peptide), ERK1; format: biochemical
Procedure: (§1) The compound was diluted to the desired concentration with DMSO, transferred 100 μL to a 96-well plate, and performed a gradient dilution 10 μL of compound from each well was taken and mixed with 90 μL of kinase buffer, and then transferred 5 μL from each well to a 384-well plate. Kinase and FAM-labeled peptide and ATP were added to 1× kinase alkaline buffer to obtain 2.5× enzyme solution and 2.5× peptide solution, 10 μL of 2.5× enzyme solution was added to the 384-well assay plate. After incubating for 10 minutes at room temperature, 10 μL of 2.5× peptide solution was added to the 384-well plate. After reacting for a specific time at […], 25 μL of termination buffer was added to stop reaction. After reading the collected data on Caliper, the data was converted to inhibition percentage. Inhibition percentage=(maximum value−conversion value)/(maximum value−minimum value)*100.
(§2) The “maximum” is the DMSO control, the “minimum” indicates the low control.
(§3) Graphpad Prism software was used to perform curve fitting and obtain IC50 value.

ERK2 = ERK2 (Homo sapiens, UniProt P28482); experiment: Kinase assay (Caliper, FAM-labeled peptide), ERK2; format: biochemical
Procedure: as §1, §2, §3

ERK1, sequence (P27361 whole entry): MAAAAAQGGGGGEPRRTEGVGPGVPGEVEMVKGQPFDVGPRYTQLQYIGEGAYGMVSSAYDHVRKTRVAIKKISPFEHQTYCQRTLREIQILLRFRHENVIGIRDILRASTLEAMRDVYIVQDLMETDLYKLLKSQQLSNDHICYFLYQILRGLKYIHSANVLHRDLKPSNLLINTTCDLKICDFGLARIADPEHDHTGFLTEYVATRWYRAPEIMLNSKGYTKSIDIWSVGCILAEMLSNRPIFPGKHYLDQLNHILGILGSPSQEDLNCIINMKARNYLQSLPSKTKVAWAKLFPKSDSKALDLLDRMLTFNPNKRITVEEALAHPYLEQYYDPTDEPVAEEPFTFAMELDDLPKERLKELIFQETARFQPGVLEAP
ERK2, sequence (P28482 whole entry): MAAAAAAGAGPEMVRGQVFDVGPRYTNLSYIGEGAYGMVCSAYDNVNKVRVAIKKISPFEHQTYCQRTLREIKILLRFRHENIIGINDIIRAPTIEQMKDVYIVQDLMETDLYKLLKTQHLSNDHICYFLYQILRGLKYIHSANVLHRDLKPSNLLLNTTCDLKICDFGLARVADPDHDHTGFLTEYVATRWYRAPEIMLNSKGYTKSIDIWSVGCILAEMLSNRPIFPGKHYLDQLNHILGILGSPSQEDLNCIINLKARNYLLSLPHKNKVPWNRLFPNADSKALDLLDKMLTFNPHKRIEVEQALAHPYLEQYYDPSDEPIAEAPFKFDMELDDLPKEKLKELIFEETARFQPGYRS

| Structure (SMILES) | IC50 (ERK1) [nM] | IC50 (ERK2) [nM] |
| --- | --- | --- |
| COC[C@H]1Cn2cc(-c3ccnc(NC4CCOCC4)c3)cc2C(=O)N1Cc1cc(F)ccc1CO [Example 67, (R)-2-(5-fluoro-2-(hydroxymethyl)benzyl)-3-(methoxymethyl)-7-(2-((tetrahydro-2h-pyran-4-yl)amino)pyridine-4-yl)-3,4-dihydropyrrolo [1,2-a]pyrazine-1(2H)-one] | 1.6 | 1.2 |
| COC[C@H]1Cn2cc(-c3cc(NC4CCC4)ncc3Cl)cc2C(=O)N1Cc1cc(F)ccc1CO [Example 70, (R)-7-(5-chloro-2-(cyclobutylamino)pyridin-4-yl)-2-(5-fluoro-2-(hydroxymethyl)benzyl)-3-(methoxymethyl)-3,4-dihydropyrrolo[1,2-a] pyrazine-1(2H)-one] | 1.8 | 2 |
| COCC1Cn2cc(-c3cc(NC4CCN(C(C)C)CC4)ncc3Cl)cc2C(=O)N1Cc1cc(F)ccc1CO (stereo not drawn) [Example 73, 7-(5-chloro-2-((1-isopropylpiperidin-4-yl)amino)pyridine-4-yl)-2-(5-fluoro-2-(hydroxymethyl)benzyl)-3-(methoxymethyl)-3,4-dihydropyrrolo[1,2-a] pyrazine-1(2H)-one] | 3.1 | 0.9 |
| COC[C@H]1Cn2cc(-c3cc(NC4CC4)ncc3Cl)cc2C(=O)N1Cc1cc(F)ccc1CO [Example 74, (R)-7-(5-chloro-2-(cyclopropylamino)pyridin-4-yl)-2-(5-fluoro-2-(hydroxymethyl)-benzyl)-3-(methoxymethyl)-3,4-dihydropyrrolo[1,2-a] pyrazine-1(2H)-one] | 1.2 | 1.3 |
| COC[C@H]1Cn2cc(-c3cc(NC4CCCC4)ncc3Cl)cc2C(=O)N1Cc1cc(F)ccc1CO [Example 77, (R)-7-(5-chloro-2-(cyclopentylamino)pyridin-4-yl)-2-(5-fluoro-2-(hydroxymethyl)benzyl)-3-(methoxymethyl)-3,4-dihydropyrrolo[1,2-a] pyrazine-1(2H)-one] | 1.1 | 1.5 |
| COC[C@H]1Cn2cc(-c3cc(NC4CCOC(C)(C)C4)ncc3Cl)cc2C(=O)N1Cc1cc(F)ccc1CO (stereo partly drawn) [Example 78, (3R)-7-(5-chloro-2-((2,2-dimethyltetrahydro-2h-pyran-4-yl)amino)pyridine-4-yl)-2-(5-fluoro-2-(hydroxymethyl)benzyl)-3-(methoxymethyl)-3,4-dihydropyrrolo[1,2-a] pyrazine-1(2H)-one] | 0.87 | 1.5 |
| COC[C@H]1Cn2cc(-c3cc(NC4COC(C)(C)C4)ncc3Cl)cc2C(=O)N1Cc1cc(F)ccc1CO (stereo partly drawn) [Example 79, (3R)-7-(5-chloro-2-((5,5-dimethyltetrahydrofuran-3-yl)amino)pyridine-4-yl)-2-(5-fluoro-2-(hydroxymethyl)benzyl)-3-(methoxymethyl)-3,4-dihydropyrrolo[1,2-a] pyrazine-1(2H)-one] | 0.36 | 0.39 |
| COC[C@H]1Cn2cc(-c3cc(Nc4cc(C)on4)ncc3Cl)cc2C(=O)N1Cc1cc(F)ccc1CO [Example 80, (R)-7-(5-chloro-2-((5-Methylisoxazole-3-yl)amino)pyridine-4-yl)-2-(5-fluoro-2-(hydroxymethyl)benzyl)-3-(methoxymethyl)-3,4-dihydropyrrolo[1,2-a] pyrazine-1(2H)-one] | 0.73 | 0.68 |
| COC[C@H]1Cn2cc(-c3cc(Nc4c(C)noc4C)ncc3Cl)cc2C(=O)N1Cc1cc(F)ccc1CO [Example 81, (R)-7-(5-chloro-2-((3,5-dimethyl-isoxazole-4-yl)amino)pyridine-4-yl)-2-(5-fluoro-2-(hydroxymethyl)benzyl)-3-(methoxymethyl)-3,4-dihydropyrrolo[1,2-a] pyrazine-1(2H)-one] | 1.1 | 1.5 |
| COCC1Cn2cc(-c3cc(NC4CCN(C(C)=O)CC4)ncc3Cl)cc2C(=O)N1Cc1cc(F)ccc1CO (stereo not drawn) [Example 110, 7-(2-((1-acetylpiperidin-4-yl)amino)-5-chloropyridine-4-yl)-2-(5-fluoro-2-(hydroxymethyl)benzyl)-3-(methoxymethyl)-3,4-dihydropyrrolo[1,2-a] pyrazine-1(2H)-one] | 0.6 | 0.7 |
| COC[C@H]1Cn2cc(-c3cc(NC4CCC(OC)CC4)ncc3Cl)cc2C(=O)N1Cc1cc(F)ccc1CO (stereo partly drawn) [Example 111, (R)-7-(5-chloro-2-((4-methoxycyclohexyl)amino)pyridine-4-yl)-2-(5-fluoro-2-(hydroxymethyl)benzyl)-3-(methoxymethyl)-3,4-dihydropyrrolo[1,2-a] pyrazine-1(2H)-one] | 0.9 | 0.9 |
| COC[C@H]1Cn2cc(-c3cc(NC(C)=O)ncc3Cl)cc2C(=O)N1Cc1cc(F)ccc1CO [Example 112, (R)-N-(5-chloro-4-(2-(5-fluoro-2-(hydroxymethyl)benzyl)-3-(methoxymethyl)-1-oxo-1,2,3,4-tetrahydropyrrolo [1,2-a]pyrazin-7-yl)pyridine-2-yl) acetamide] | 0.4 | 1 |
| COC[C@H]1Cn2cc(-c3cc(Nc4ccn(CC(F)F)n4)ncc3Cl)cc2C(=O)N1Cc1cc(F)ccc1CO [Example 114, (R)-7-(5-chloro-2-((1-(2,2-difluoroethyl)-1h-pyrazole-3-yl)amino)pyridine-4-yl)-2-(5-fluoro-2-(hydroxymethyl)benzyl)-3-(methoxymethyl)-3,4-dihydropyrrolo[1,2-a] pyrazine-1(2H)-one] | 1.3 | 1.3 |
| COC[C@H]1Cn2cc(-c3cc(NC(=O)c4csc(C)n4)ncc3Cl)cc2C(=O)N1Cc1cc(F)ccc1CO [Example 117, (R)-N-(5-chloro-4-(2-(5-fluoro-2-(hydroxymethyl)benzyl)-3-(methoxymethyl)-1-oxo-1,2,3,4-tetrahydropyrrolo [1,2-a]pyrazin-7-yl)pyridine-2-yl)-2-methylthiazol-4-formamide] | 1.2 | 1 |
| Cc1cnc(NC(C)CO)nc1-c1cc2n(c1)CCN(Cc1cc(F)ccc1CO)C2=O (stereo not drawn) [Example 121, 2-(5-fluoro-2-(hydroxymethyl)benzyl)-7-(2-((1-hydroxypropyl-2-yl)amino)-5-methylpyrimidin-4-yl)-3,4-dihydropyrrolo[1,2-a] pyrazine-1(2H)-one] | 0.2 | 0.2 |
| Cc1cnc(NC2COC2)nc1-c1c[nH]c(C(=O)NCc2cc(F)ccc2CO)c1 [Example 122, N-(5-fluoro-2-(hydroxymethyl)benzyl)-4-(5-methyl-2-(oxacyclobutane-3-ylamino)pyrimidin-4-yl)-1h-pyrrole-2-formamide] | 0.65 | 0.71 |
| Cc1cnc(NC(C)C)nc1-c1cc2n(c1)CCN(Cc1cc(F)ccc1CO)C2=O [Example 123, 2-(5-fluoro-2-(hydroxymethyl)benzyl)-7-(2-(isopropylamino)-5-methylpyrimidin-4-yl)-3,4-dihydropyrrolo[1,2-a] pyrazine-1(2H)-one] | 0.53 | 0.44 |
| O=C1c2cc(-c3cc(NCC(F)(F)F)ncc3Cl)cn2CCN1Cc1cc(F)ccc1CO [Example 124, 7-(5-chloro-2-((2,2,2-trifluoroethyl)amino)pyridine-4-yl)-2-(5-fluoro-2-(hydroxymethyl)benzyl)-3,4-dihydropyrrolo[1,2-a] pyrazine-1(2H)-one] | 0.79 | 0.98 |
